Tests used:
[1] = tested on: PC3, human prostate cancer cell line; assay: MTT assay, cytotoxicity in PC3; assay type: cell-based; details: for IC50: Homo sapiens, MTT, 72 h, mean ± SD; for PC3 SI (selectivity index): SI = IC50 HaCaT / IC50 PC3
Procedure: (§1) The human cell lines SW480 (primary colon cancer), SW620 (lymph node metastatic colon cancer from the same patient as primary cancer cells), PC3 (metastatic prostate cancer), and HaCaT (immortalized keratinocytes) were obtained from the American Type Culture Collection (ATCC, Rockville, USA). The SW480 and SW620 cells were grown in MEM (ThermoSci, USA), PC3 in RPMI 1640, and HaCaT in DMEM High Glucose (Biowest SAS, France) supplemented with 10% foetal bovine serum (FBS), HEPES (20 mM), and antibiotics (100 U mL^–1 of penicillin and 100 μg mL^–1 of streptomycin). The cells were incubated in a humidified incubator at 37 °C/5% CO2, until 80–90% confluence was reached.
(§2) The cell viability was assessed by using of MTT salt [3-(4,5-dimethylthiazol-2-yl)-2,5-diphenyltetrazolium bromide] converted by mitochondrial dehydrogenase, occurring in living cells. The cells were seeded in 96-well plates at a density of 1 × 10^4 cells per well and allowed to adhere for 24 h at 37 °C in a CO2 humidified incubator. Then, the medium was removed and a fresh medium with various concentrations of tested compounds (from 10 to 120 μM) was added. The untreated cells were used as the control.
(§3) After 72 h incubation, the medium was replaced with 200 μL per well of free serum medium containing 0.5 mg mL^–1 MTT and incubated for 4 h at 37 °C in a CO2 humidified incubator. Subsequently, the medium was removed and dimethyl sulfoxide with isopropanol (1:1) was added to dissolve the formazan crystals. The optical density was measured using a UVM 340 reader (ASYS Hitech GmbH, Austria) at a wavelength of 570 nm. The experiments were repeated three times. The cell viability was calculated as the percent of MTT reduced in treated cells versus control cells (untreated cells). The number of viable cells cultured without tested compounds was assumed as 100%. The decreased relative MTT level indicates decreased cell viability. The IC50 values were estimated using CompuSyn version 1.0.

SW480 cells = assay: Annexin V-FITC/PI binding assay (flow cytometry) in SW480; assay type: cell-based, human; details: IC50 concentration, 72 h
Procedure: (§4) The SW480, SW620, PC3, and HaCaT cells were cultured and harvested under the conditions mentioned in the Section 4.5 and seeded in 12-well plates (1 × 10^5 cells per well). […] The apoptotic effect was performed using the Annexin V-FITC/propidium iodide (PI) apoptosis assay kit (Becton Dickinson, Pharmingen), according to the manufacturer’s instructions, and analyzed by flow cytometry (Becton Dickinson). The cells which were Annexin V-FITC-positive and PI-negative were identified as early apoptotic and both Annexin V-FITC- and PI-positive as late apoptotic or necrotic. The experiment was repeated three times.

IL-6 in SW480 cells = assay: Interleukin-6 assay (ELISA) in SW480; assay type: cell-based, human; details: IC50 concentration, 72 h, ELISA of culture supernatant
Procedure: (§5) The level of interleukin-6 (IL-6) in SW480, SW620, and PC3 cell lines was measured by commercial human IL-6 ELISA kits Diaclon SAS (Besancon Cedex, France). […] The untreated cells were used as the control. The IL-6 level in a cell culture supernatant was measured using an enzyme-linked immunosorbent assay, in accordance with the manufacturer’s instruction. The experiment was repeated three times.

[2] = tested on: SW480, human primary colon cancer cell line; assay: MTT assay, cytotoxicity in SW480; assay type: cell-based; details: for IC50: Homo sapiens, SW480, MTT, 72 h, mean ± SD; for SW480 SI (selectivity index): SI = IC50 HaCaT / IC50 SW480
Procedure: as §1, §2, §3

IL-6 in SW620 cells = assay: Interleukin-6 assay (ELISA) in SW620; assay type: cell-based, human; details: IC50 concentration, 72 h, ELISA of culture supernatant
Procedure: as §5

[3] = tested on: ROS production in PC3, SW480, SW620 cells; assay: ROS detection, DCFH-DA and DHR-123 assay, cancer cell lines; assay type: cell-based, human; details: IC50 concentration; DCF and rhodamine fluorescence intensity
Procedure: (§6) ROS generation was assessed by the spectrofluorometric method using the 2′,7′-dichlorodihydrofluorescein diacetate (DCFH-DA) or dihydrorhodamine 123 (DHR-123). The method is based on the ROS-dependent oxidation of the compounds to fluorescent dichlorofluorescein (DCF) or rhodamine-123, respectively.[61] PC3, SW480, SW620, and HaCaT were seeded on to 96-well plates (5 × 10^4 cells per well) and allowed to adhere for 24 h. Then, cells were rinsed with PBS and incubated with DCFH-DA (5 μM) or DHR-123 (1 μM) for 30 min at 37 °C in the dark. […] A sample with H2O2 (1.5 mM) was a positive control, and a sample without any reagent was a negative control. Maximum excitation and emission spectra for DCF were 492 and 527 nm, and those for rhodamine-123 were 500 and 536 nm, respectively. The generation of H2O2 was measured by Microplate Spectrofluorometer BioTek Synergy (BioTek Instruments, USA) and expressed as fluorescence intensity (FI). Values from three experiments performed in triplicate were analyzed.

[4] = tested on: HaCaT, human immortalized keratinocyte cell line; assay: MTT assay, cytotoxicity in HaCaT; assay type: cell-based; details: Homo sapiens, HaCaT, 72 h, mean ± SD, nontumor cells
Procedure: as §1, §2, §3

SW620 cells = assay: Annexin V-FITC/PI binding assay (flow cytometry) in SW620; assay type: cell-based, human; details: IC50 concentration, 72 h
Procedure: as §4

[5] = tested on: SW620, human metastatic colon cancer cell line; assay: MTT assay, cytotoxicity in SW620; assay type: cell-based; details: for IC50: Homo sapiens, SW-620, MTT, 72 h, mean ± SD; for SW620 SI (selectivity index): SI = IC50 HaCaT / IC50 SW620
Procedure: as §1, §2, §3

[6] = tested on: ROS production in HaCaT cells; assay: ROS detection, DCFH-DA and DHR-123 assay, HaCaT; assay type: cell-based, human; details: IC50 concentration; for ROS level in HaCaT cells (in words): DCF and rhodamine fluorescence intensity; for time of treatment at which the amount of ROS in HaCaT cells was highest: measured after 1, 4, 12, 24 h
Procedure: as §6

HaCaT cells = assay: Annexin V-FITC/PI binding assay (flow cytometry) in HaCaT; assay type: cell-based, human; details: IC50 concentration, 72 h; span stated for compounds 12 and 13 together
Procedure: as §4

PC3 cells = assay: Annexin V-FITC/PI binding assay (flow cytometry) in PC3; assay type: cell-based, human; details: IC50 concentration, 72 h
Procedure: as §4

IL-6 in PC3 cells = assay: Interleukin-6 assay (ELISA) in PC3; assay type: cell-based, human; details: IC50 concentration, 72 h, ELISA of culture supernatant, p ≤ 0.001
Procedure: as §5

| Structure (SMILES) | IC50 [1] | PC3 SI (selectivity index) [1] | percentage of necrotic SW480 cells (SW480 cells) | decrease of IL-6 concentration in SW480 cells compared to the control (IL-6 in SW480 cells) | IC50 [2] | SW480 SI (selectivity index) [2] | decrease of IL-6 concentration in SW620 cells compared to the control (IL-6 in SW620 cells) | ROS level in cancer cell lines (in words) [3] | IC50 [4] | early apoptosis in SW620 cells (SW620 cells) | late apoptosis in SW620 cells (SW620 cells) | IC50 [5] | SW620 SI (selectivity index) [5] | ROS level in HaCaT cells (in words) [6] | time of treatment at which the amount of ROS in HaCaT cells was highest [6] | late apoptosis in HaCaT cells (HaCaT cells) | percentage of late apoptotic PC3 cells (PC3 cells) | percentage of necrotic PC3 cells (PC3 cells) | inhibition of IL-6 release in PC3 cells, fold more effectively compared to control (IL-6 in PC3 cells) | percentage of late apoptotic SW480 cells (SW480 cells) |
| --- | --- | --- | --- | --- | --- | --- | --- | --- | --- | --- | --- | --- | --- | --- | --- | --- | --- | --- | --- | --- |
| CC[C@@H](C(=O)[C@@H](C)[C@@H](O)[C@H](C)CCc1ccc(C)c(O)c1C(=O)OC[C@H]1O[C@@H](n2ccc(N)nc2=O)C(F)(F)[C@@H]1O)[C@H]1O[C@](CC)([C@H]2CC[C@](O)(CC)[C@H](C)O2)C[C@@H]1C [Compound 12, LAS–Gemcitabine Conjugate] | 1.6 ± 1.2 µM | 8.8 | 42.85% | ~1.0 time | 12 ± 0.86 µM | 1.2 | ~1.3 time | significantly higher level of ROS | 14 ± 0.22 µM | 14.53% | 14.79% | 3.6 ± 1.1 µM | 3.9 | slightly elevated level of ROS | 4 h | 57.26 to 72.01% | 39.92% | 40.31% |  |  |
| CC[C@@H](C(=O)[C@@H](C)[C@@H](O)[C@H](C)CCc1ccc(C)c(O)c1C(=O)OCc1cc(=O)c(O)co1)[C@H]1O[C@](CC)([C@H]2CC[C@](O)(CC)[C@H](C)O2)C[C@@H]1C [Compound 7, LAS–Kojic Acid Conjugate] | 3.8 ± 0.07 µM | 1.7 | 22.39% |  | 7.8 ± 0.09 µM | 0.8 |  |  | 6.3 ± 0.1 µM |  |  | 9.9 ± 0.08 µM | 0.6 |  |  |  | 28.24% | 26.00% | ~1.2 fold |  |
| CC[C@@H](C(=O)[C@@H](C)[C@@H](O)[C@H](C)CCc1ccc(C)c(O)c1C(=O)OCCC[P+](c1ccccc1)(c1ccccc1)c1ccccc1)[C@H]1O[C@](CC)([C@H]2CC[C@](O)(CC)[C@H](C)O2)C[C@@H]1C [Compound 13, LAS–TPP Conjugate] | 1.8 ± 0.09 µM | 1.8 | 24.82% |  | 1.4 ± 1.5 µM | 2.3 |  | significantly higher level of ROS | 3.2 ± 0.12 µM |  |  | 2.3 ± 2.2 µM | 1.4 | significantly higher level of ROS | 12 h | 57.26 to 72.01% |  | 56.81% |  | 20.15% |

From article PMC8771711, “Synthesis of Lasalocid-Based Bioconjugates and Evaluation of Their Anticancer Activity” (ACS Omega, 2022)
